The test system of data set [1] is subjects who had undergone surgical implantation of a refractive intraocular lens, experiencing photophobia, glare, secondary images and haloing. The experiment in a line: Topical thymoxamine ophthalmic solution in subjects after implantation of a refractive intraocular lens. It is filed as in vivo, human. The note with it: three subjects. As to the method: A suitable ophthalmic solution was prepared containing about 0.5% by weight thymoxamine by the Moorfields Eye Hospital, London, England having the following composition: Applicant believes that the aqueous ophthalmic solution was prepared by dissolving the sodium acetate, boric acid and phenylmercuric nitrate in most of the purified water. Dissolution was promoted by heating the solution. Upon cooling the solution to room temperature, the thymoxamine hydrochloride was added and was dissolved without further heating. The remainder of the purified water was then added to reach a final volume of 100 ml. Sterilization of the solution was achieved by filtering it through a sterilizing filter. Three subjects, each of whom had undergone surgical implantation of a refractive intraocular lens, were selected for study. Each of the three subjects complained of experiencing photophobia, glare, secondary images and haloing, especially at night. Each of the three subjects received an approximately one drop dose twice daily of an ophthalmic solution containing 0.5% by weight of thymoxamine. […] Each of the subjects continued application of approximately a one drop dose on an as needed basis for a period of one month.

Data set [2] relates to patients who had undergone radial keratotomy and who each experienced glare and halos. Put plainly: Topical thymoxamine ophthalmic solution in patients after radial keratotomy. It is filed as in vivo, human. As to conditions: two radial keratotomy patients; similarly treated with 0.5% by weight solution.

Counter-ions that a name gives are not always drawn.

Regarding `CC(=O)Oc1cc(C(C)C)c(OCCN(C)C)cc1C` [thymoxamine, thymoxamine hydrochloride], in data set [1] (0.5% by weight solution, one day period), the “induced myopia or headaches” value is given as “without experiencing induced myopia or headaches”. The “irritation from the topical application to the eye” value in data set [1] (after administration of a dosage of 0.5% by weight solution) was “mild irritation”. For the same compound, the “undesirable visual anomalies once treatment was terminated” value in data set [1] (after termination of treatment) is on record as “returned to each of the three subjects”. Moreover, the “undesirable visual anomaly during the usage period” value in data set [1] (approximately one drop as needed for one month) was “None of the subjects have experienced the previously complained of undesirable visual anomaly”. Also, the “previously complained of undesirable visual anomaly (photophobia, glare, secondary images, haloing)” value in data set [1] (approximately one drop twice daily of 0.5% by weight solution, one day period) is on record as “elimination of the previously complained of undesirable visual anomaly”. Further, the “glare and halos after treatment” value in data set [2] is given as “comparable results”.

The record behind these values is patent US6730691B1, “Uses of alpha adrenergic blocking agents” (priority 2000, dated 2004).
